Measurements: patent publication US7304174B2, “CaSR antagonist” (Japan Tobacco Inc., priority 2003, dated 2007)
pIC50: −log10 of the molar value.

Target: T1, human calcium receptor (Homo sapiens, UniProt P41180)
T1 construct: expressed in transfected cells; host or cells: cell strain derived from rat adrenal, co-transformed with luciferase cDNA
T1 sequence (P41180 20-1078): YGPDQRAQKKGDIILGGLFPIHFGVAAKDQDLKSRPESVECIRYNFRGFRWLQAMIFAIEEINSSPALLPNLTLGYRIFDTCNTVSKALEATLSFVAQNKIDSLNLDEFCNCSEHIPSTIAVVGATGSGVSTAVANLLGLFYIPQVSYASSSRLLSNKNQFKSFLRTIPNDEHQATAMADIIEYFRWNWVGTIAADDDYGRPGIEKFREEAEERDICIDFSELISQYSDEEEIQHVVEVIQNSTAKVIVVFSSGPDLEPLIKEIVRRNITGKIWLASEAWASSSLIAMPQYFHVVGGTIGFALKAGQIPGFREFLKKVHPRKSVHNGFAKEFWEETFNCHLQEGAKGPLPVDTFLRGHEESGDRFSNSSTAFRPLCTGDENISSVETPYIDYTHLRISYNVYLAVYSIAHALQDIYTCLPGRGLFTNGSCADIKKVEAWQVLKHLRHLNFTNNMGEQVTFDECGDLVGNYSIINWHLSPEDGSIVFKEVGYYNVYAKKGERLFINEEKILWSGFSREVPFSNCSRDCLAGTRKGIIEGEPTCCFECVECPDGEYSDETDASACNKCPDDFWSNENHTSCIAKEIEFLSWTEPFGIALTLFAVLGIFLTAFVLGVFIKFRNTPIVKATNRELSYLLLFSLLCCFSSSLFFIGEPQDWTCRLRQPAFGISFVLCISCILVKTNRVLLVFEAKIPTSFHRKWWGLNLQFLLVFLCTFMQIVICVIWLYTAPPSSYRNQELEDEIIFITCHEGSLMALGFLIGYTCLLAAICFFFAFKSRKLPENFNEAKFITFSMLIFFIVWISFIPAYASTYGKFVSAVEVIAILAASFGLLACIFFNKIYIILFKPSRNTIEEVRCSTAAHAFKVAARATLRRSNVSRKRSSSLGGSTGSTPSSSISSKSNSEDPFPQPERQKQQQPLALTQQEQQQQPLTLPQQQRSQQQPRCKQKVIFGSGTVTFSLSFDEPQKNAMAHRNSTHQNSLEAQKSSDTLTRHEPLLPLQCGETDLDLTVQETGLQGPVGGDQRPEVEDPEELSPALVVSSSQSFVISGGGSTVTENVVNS
Assay: Evaluation of antagonistic action on calcium receptor using reporter gene (luciferase)
Assay type: cell-based
Conditions: transformed rat adrenal derived cells, 5 mM calcium chloride, culture 4 hrs, luciferase activity; read-out: Reporter gene assay (IC50, concentration showing 50% inhibitory rate)
Protocol: Evaluation of Antagonistic Action on Calcium Receptor Using Reporter Gene
Luciferase cDNA and human calcium receptor cDNA were introduced into a cell strain derived from rat adrenal to transform the cells, and the transformed cells were cultured in a medium (80 μl, F12 medium containing 0.5% dialyzed horse serum and 0.25% dialyzed bovine fetal serum). A dimethyl sulfoxide solution containing a test compound at 0.1-10000 μM was diluted 100-fold with the medium and added to the test compound group at 10 μl per well (dimethyl sulfoxide final concentration 0.1%). In the same manner as in test compound group, dimethyl sulfoxide 100-fold diluted with medium was added to a control group and a blank group. Then, 50 mM calcium chloride-containing medium was added to every well except the blank group at 10 μl per well (final concentration 5 mM). A medium containing 50 mM calcium chloride was added to the control group at 10 μl per well, such that the final calcium concentration of the medium became 5 mM. A medium alone was added to the blank group. After culture for 4 hrs, luciferase substrate was added and the luciferase activity was measured with a photoluminometer. The inhibitory rate (%) was calculated from the obtained measured values according to the following formula.
Based on the results, the concentration (IC50) showing 50% inhibitory rate was determined. The results are shown in the aforementioned Tables 1 to 60.

| pIC50 | SMILES |
| --- | --- |
| 7.54 | COC(=O)c1cc(C(=O)OC)cc(-c2ccccc2[C@@H](C)OC[C@H](O)CNC(C)(C)Cc2ccc3ccccc3c2)c1 [Example 1-10, methyl 2′-[1-[(2R)-3-[[1-(naphthalen-2-yl)-2-methylpropan-2-yl]amino]-2-hydroxypropoxy]ethyl]biphenyl-3,5-dicarboxylate] |
| 7.85 | Cc1cc(-c2ccccc2[C@@H](C)OC[C@H](O)CNC(C)(C)Cc2ccc(Cl)c(F)c2)ccc1C(=O)O [Example 1-88] |
| 7.57 | Cc1cc(-c2ccccc2[C@@H](C)OC[C@H](O)CNC(C)(C)Cc2cc(F)cc(Cl)c2)ccc1C(=O)O [Example 1-93] |
| 7.85 | Cc1ccc(CC(C)(C)NC[C@@H](O)CO[C@H](C)c2ccccc2-c2ccc(C(=O)O)c(N3CCOCC3)c2)cc1F [Example 1-102, 2′-[1-[(2R)-3-[[1-(3-fluoro-4-methylphenyl)-2-methylpropan-2-yl]amino]-2-hydroxypropoxy]ethyl]-3-morpholinobiphenyl-4-carboxylic acid] |
| 8.52 | Cc1cc(-c2ccccc2[C@@H](C)OC[C@H](O)CNC(C)(C)Cc2ccc3ccccc3c2)cc(C)c1C(=O)O [Example 1-40, 3,5-dimethyl-2′-[1-[(2R)-3-[[1-(naphthalen-2-yl)-2-methylpropan-2-yl]amino]-2-hydroxypropoxy]ethyl]biphenyl-4-carboxylic acid] |
| 7.66 | Cc1cc(C(=O)O)cc(C)c1Oc1ccccc1C(C)OC[C@H](O)CNC(C)(C)Cc1ccc(Cl)cc1F (stereo partly drawn) [Example 2-13, 4-[2-[1-[(2R)-3-[[1-(4-chloro-2-fluorophenyl)-2-methylpropan-2-yl]amino]-2-hydroxypropoxy]ethyl]phenoxy]-3,5-dimethylbenzoic acid] |
| 7.62 | Cc1ccc(CC(C)(C)NC[C@@H](O)CO[C@H](C)c2ccccc2OCc2ccc(C(=O)O)cc2C)cc1F [Example 2-26, 4-[[2-[1-[(2R)-3-[[1-(3-fluoro-4-methylphenyl)-2-methylpropan-2-yl]amino]-2-hydroxypropoxy]ethyl]phenoxy]methyl]-3-methylbenzoic acid] |
| 8.00 | CC(OC[C@H](O)CNC(C)(C)Cc1ccc2ccccc2c1)c1ccccc1Oc1ccc(C(=O)O)cc1 (stereo partly drawn) [Example 2-4, 4-[2-[1-[(2R)-3-[[1-(naphthalen-2-yl)-2-methylpropan-2-yl]amino]-2-hydroxypropoxy]ethyl]phenoxy]benzoic acid] |
| 8.70 | CC(C)Cc1cc(-c2ccccc2[C@@H](C)OC[C@H](O)CNC(C)(C)Cc2ccc3ccccc3c2)ccc1C(=O)O [Example 1-45, 3-isobutyl-2′-[1-[(2R)-3-[[1-(naphthalen-2-yl)-2-methylpropan-2-yl]amino]-2-hydroxypropoxy]ethyl]biphenyl-4-carboxylic acid] |
| 7.96 | Cc1ccc(CC(C)(C)NC[C@@H](O)CO[C@H](C)c2ccccc2-c2ccc(C(=O)O)c(C)c2)cc1F [Example 1-16, 2′-[1-[(2R)-3-[[1-(3-fluoro-4-methylphenyl)-2-methylpropan-2-yl]amino]-2-hydroxypropoxy]ethyl]-3-methylbiphenyl-4-carboxylic acid] |
| 7.68 | C[C@@H](OC[C@H](O)CNC(C)(C)Cc1ccc2ccccc2c1)c1ccccc1-c1ccc(C(=O)O)c(N(C)C)c1 [Example 1-77, 3-(dimethylamino)-2′-[1-[(2R)-3-[[1-(naphthalen-2-yl)-2-methylpropan-2-yl]amino]-2-hydroxypropoxy]ethyl]biphenyl-4-carboxylic acid] |
| 7.92 | Cc1cc(C(=O)O)cc(C)c1-c1ccccc1[C@@H](C)OC[C@H](O)CNC(C)(C)Cc1ccc2ccccc2c1 [Example 1-75, 2,6-dimethyl-2′-[1-[(2R)-3-[[1-(naphthalen-2-yl)-2-methylpropan-2-yl]amino]-2-hydroxypropoxy]ethyl]biphenyl-4-carboxylic acid] |
| 8.30 | Cc1ccc(CC(C)(C)NC[C@@H](O)COC(C)c2ccccc2Oc2c(C)cc(C(=O)O)cc2C)cc1F (stereo partly drawn) [Example 2-12, 4-[2-[1-[(2R)-3-[[1-(3-fluoro-4-methylphenyl)-2-methylpropan-2-yl]amino]-2-hydroxypropoxy]ethyl]phenoxy]-3,5-dimethylbenzoic acid] |
| 6.63 | CC(OC[C@H](O)CNC(C)(C)Cc1ccc2ccccc2c1)c1ccccc1S(=O)(=O)c1ccc(C(=O)O)cc1 (stereo partly drawn) [Example 2-18, 4-[2-[1-[(2R)-3-[[1-(naphthalen-2-yl)-2-methylpropan-2-yl]amino]-2-hydroxypropoxy]ethyl]phenylsulfonyl]benzoic acid] |
| 8.52 | C[C@@H](OC[C@H](O)CNC(C)(C)Cc1ccc2ccccc2c1)c1ccccc1-c1ccc(C(=O)O)c(-c2ccccc2)c1 [Example 1-41, 2-[1-[(2R)-3-[[1-(naphthalen-2-yl)-2-methylpropan-2-yl]amino]-2-hydroxypropoxy]ethyl]-m-terphenyl-4′-carboxylic acid] |
| 6.70 | C[C@@H](OC[C@H](O)CNC(C)(C)Cc1ccc(Cl)c(F)c1)c1ccccc1-c1ccc(C(=O)O)c(C(=O)O)c1 [Example 1-107, 2′-[1-[(2R)-3-[[1-(4-chloro-3-fluorophenyl)-2-methylpropan-2-yl]amino]-2-hydroxypropoxy]ethyl]-3-carboxylphenyl-4-carboxylic acid] |
| 8.70 | C[C@@H](OC[C@H](O)CNC(C)(C)Cc1ccc2ccccc2c1)c1ccccc1-c1ccc(C(=O)O)c([N+](=O)[O-])c1 [Example 1-69, 2′-[1-[(2R)-3-[[1-(naphthalen-2-yl)-2-methylpropan-2-yl]amino]-2-hydroxypropoxy]ethyl]-3-nitrobiphenyl-4-carboxylic acid] |
| 7.62 | Cc1ccc(CC(C)(C)NC[C@@H](O)CO[C@H](C)c2ccccc2-c2ccc(C(=O)O)c(C)c2C)cc1F [Example 1-42, 2′-[1-[(2R)-3-[[1-(3-fluoro-4-methylphenyl)-2-methylpropan-2-yl]amino]-2-hydroxypropoxy]ethyl]-2,3-dimethylbiphenyl-4-carboxylic acid] |
| 8.30 | CC(=O)Nc1cc(-c2ccccc2[C@@H](C)OC[C@H](O)CNC(C)(C)Cc2ccc3ccccc3c2)ccc1C(=O)O [Example 1-71, 3-(acetylamino)-2′-[1-[(2R)-3-[[1-(naphthalen-2-yl)-2-methylpropan-2-yl]amino]-2-hydroxypropoxy]ethyl]biphenyl-4-carboxylic acid] |
| 7.80 | COc1cc(CC(C)(C)NC[C@@H](O)CO[C@H](C)c2ccccc2-c2ccc(C(=O)O)c(C)c2)ccc1Cl [Example 1-23, 2′-[1-[(2R)-3-[[1-(4-chloro-3-methoxyphenyl)-2-methylpropan-2-yl]amino]-2-hydroxypropoxy]ethyl]-3-methylbiphenyl-4-carboxylic acid] |
| 7.85 | Cc1ccc(CC(C)(C)NC[C@@H](O)CO[C@H](C)c2ccccc2-c2ccc(C(=O)O)c(C)c2)cc1F [Example 1-108] |
| 8.52 | Cc1c(C(=O)O)ccc(-c2ccccc2[C@@H](C)OC[C@H](O)CNC(C)(C)Cc2ccc3ccccc3c2)c1C [Example 1-37, 2,3-dimethyl-2′-[1-[(2R)-3-[[1-(naphthalen-2-yl)-2-methylpropan-2-yl]amino]-2-hydroxypropoxy]ethyl]biphenyl-4-carboxylic acid] |
| 7.19 | Cc1ccc(CC(C)(C)NC[C@@H](O)CO[C@H](C)c2ccccc2OCc2ccc(C(=O)O)cc2F)cc1F [Example 2-25, 3-fluoro-4-[[2-[1-[(2R)-3-[[1-(3-fluoro-4-methylphenyl)-2-methylpropan-2-yl]amino]-2-hydroxypropoxy]ethyl]phenoxy]methyl]benzoic acid] |
| 7.82 | Cc1cc(-c2ccccc2[C@@H](C)OC[C@H](O)CNC(C)(C)Cc2ccc(Cl)cc2F)ccc1C(=O)O [Example 1-109] |
